Measured values: ChEMBL document CHEMBL1132123, “The synthesis and biological activity of a series of 2,4-diaminopyrido[2,3-d]pyrimidine based antifolates as antineoplastic and antiarthritic agents” (Bioorg Med Chem Lett, 1999)
Values belong to the molecule of their own block, whether it stands above or below them.

Legend:
Rattus norvegicus [1] = test: Compound evaluated for inhibition of rat paw swelling after ip administration at 0.30 mg/kg in delayed phase; type: functional; details: route intraperitoneal
Rattus norvegicus [2] = test: Compound evaluated for inhibition of rat paw swelling after ip administration at 0.30 mg/kg and expressed as net swelling in mL of displaced water in delayed phase; type: functional; details: dose 0.3 mg/kg; route intraperitoneal
Dihydrofolate reductase = biological target: T1, Dihydrofolate reductase (Homo sapiens, UniProt P00374); test: Inhibitory activity against recombinant human dihydrofolate reductase (DHFR)
T1 sequence (P00374 whole entry): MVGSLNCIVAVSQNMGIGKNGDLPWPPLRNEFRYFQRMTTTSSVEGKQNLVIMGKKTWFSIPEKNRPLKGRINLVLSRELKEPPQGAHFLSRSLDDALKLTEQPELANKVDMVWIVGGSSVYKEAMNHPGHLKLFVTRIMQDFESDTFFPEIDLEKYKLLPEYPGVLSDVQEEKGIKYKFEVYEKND

[3] = biological target: T2, Trifunctional purine biosynthetic protein adenosine-3 (Mus musculus, UniProt Q64737); test: Inhibitory activity against murine glycinamide ribonucleotide formyltransferase (GARFT) enzyme
T2 sequence (Q64737 whole entry): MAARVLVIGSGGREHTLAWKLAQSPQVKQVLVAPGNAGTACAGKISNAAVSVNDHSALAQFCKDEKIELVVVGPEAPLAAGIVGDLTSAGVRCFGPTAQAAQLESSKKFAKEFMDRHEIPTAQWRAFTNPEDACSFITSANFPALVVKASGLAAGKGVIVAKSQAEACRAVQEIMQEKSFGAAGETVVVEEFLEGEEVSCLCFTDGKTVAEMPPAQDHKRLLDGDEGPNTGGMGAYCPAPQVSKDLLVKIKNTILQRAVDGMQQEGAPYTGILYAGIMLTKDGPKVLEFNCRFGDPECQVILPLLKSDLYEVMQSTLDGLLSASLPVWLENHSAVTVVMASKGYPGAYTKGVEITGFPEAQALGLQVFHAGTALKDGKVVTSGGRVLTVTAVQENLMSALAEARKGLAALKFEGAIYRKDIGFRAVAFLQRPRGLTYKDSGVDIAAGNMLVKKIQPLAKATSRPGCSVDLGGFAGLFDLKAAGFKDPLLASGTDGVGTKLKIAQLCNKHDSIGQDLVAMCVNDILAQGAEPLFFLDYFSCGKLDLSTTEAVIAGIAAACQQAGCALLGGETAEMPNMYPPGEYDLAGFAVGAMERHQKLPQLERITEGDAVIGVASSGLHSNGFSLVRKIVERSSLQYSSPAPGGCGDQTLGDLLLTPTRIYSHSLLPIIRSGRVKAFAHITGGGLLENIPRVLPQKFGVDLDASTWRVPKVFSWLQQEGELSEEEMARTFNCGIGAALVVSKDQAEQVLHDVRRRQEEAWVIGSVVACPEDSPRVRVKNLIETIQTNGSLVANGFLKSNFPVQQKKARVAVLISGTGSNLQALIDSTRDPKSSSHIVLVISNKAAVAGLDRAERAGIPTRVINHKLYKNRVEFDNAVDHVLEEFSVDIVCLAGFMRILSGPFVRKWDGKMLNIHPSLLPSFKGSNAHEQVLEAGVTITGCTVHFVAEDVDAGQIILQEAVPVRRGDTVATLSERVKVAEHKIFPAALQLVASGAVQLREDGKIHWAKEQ

Thymidylate synthase [4] = biological target: T3, Thymidylate synthase (Homo sapiens, UniProt P04818); test: Inhibitory activity against recombinant human Thymidylate synthase enzyme
[5] = Vmax/Km value was determined
Rattus norvegicus [6] = test: Compound evaluated for inhibition of rat paw swelling after ip administration at 0.06 mg/kg in acute phase; type: functional; details: route intraperitoneal
Rattus norvegicus [7] = test: Compound evaluated for inhibition of rat paw swelling after ip administration at 0.06 mg/kg in delayed phase; type: functional; details: route intraperitoneal
Rattus norvegicus [8] = test: Compound evaluated for inhibition of rat paw swelling after ip administration at 0.125 mg/kg in acute phase; type: functional; details: route intraperitoneal
Rattus norvegicus [9] = test: Compound evaluated for inhibition of rat paw swelling after ip administration at 0.125 mg/kg in delayed phase; type: functional; details: route intraperitoneal
Rattus norvegicus [10] = test: Compound evaluated for inhibition of rat paw swelling after ip administration at 0.06 mg/kg and expressed as net swelling in mL of displaced water in acute phase; type: functional; details: route intraperitoneal
Rattus norvegicus [11] = test: Compound evaluated for inhibition of rat paw swelling after ip administration at 0.06 mg/kg and expressed as net swelling in mL of displaced water in delayed phase; type: functional; details: route intraperitoneal
Rattus norvegicus [12] = test: Compound evaluated for inhibition of rat paw swelling after ip administration at 0.125 mg/kg and expressed as net swelling in mL of displaced water in acute phase; type: functional; details: route intraperitoneal
Rattus norvegicus [13] = test: Compound evaluated for inhibition of rat paw swelling after ip administration at 0.125 mg/kg and expressed as net swelling in mL of displaced water in delayed phase; type: functional; details: route intraperitoneal
Thymidylate synthase [14] = biological target: T3, Thymidylate synthase; test: Inhibitory activity against recombinant human Thymidylate synthase
[15] = substrate: C[C@](CCC(=O)O)(NC(=O)c1ccc(CCC2CNc3nc(N)nc(N)c3C2)cc1)C(=O)O; test: (§1) Maximum rate of metabolism by hog liver folyl-poly-glutamate synthetase (FPGS) was determined; details: Sus scrofa
[16] = substrate: C[C@](CCC(=O)O)(NC(=O)c1ccc(CCC2CNc3nc(N)nc(N)c3C2)o1)C(=O)O; test: as §1; details: Sus scrofa
[17] = substrate: C[C@](CCC(=O)O)(NC(=O)c1ccc(CCC2CNc3nc(N)nc(N)c3C2)s1)C(=O)O; test: as §1; details: Sus scrofa
[18] = substrate: Nc1nc(O)c2c(n1)NCC(CCc1ccc(C(=O)NC(CCC(=O)O)C(=O)O)cc1)C2; test: as §1; details: Sus scrofa
[19] = substrate: C[C@](CCC(=O)O)(NC(=O)c1ccc(CCC2CNc3nc(N)nc(N)c3C2)cc1)C(=O)O; test: (§2) Michaelis-Menten constant for hog liver folyl-poly-glutamate synthetase (FPGS); details: Sus scrofa
[20] = substrate: C[C@](CCC(=O)O)(NC(=O)c1ccc(CCC2CNc3nc(N)nc(N)c3C2)o1)C(=O)O; test: as §2; details: Sus scrofa
[21] = substrate: C[C@](CCC(=O)O)(NC(=O)c1ccc(CCC2CNc3nc(N)nc(N)c3C2)s1)C(=O)O; test: as §2; details: Sus scrofa
[22] = substrate: Nc1nc(O)c2c(n1)NCC(CCc1ccc(C(=O)NC(CCC(=O)O)C(=O)O)cc1)C2; test: as §2; details: Sus scrofa

T3 sequence (P04818 whole entry): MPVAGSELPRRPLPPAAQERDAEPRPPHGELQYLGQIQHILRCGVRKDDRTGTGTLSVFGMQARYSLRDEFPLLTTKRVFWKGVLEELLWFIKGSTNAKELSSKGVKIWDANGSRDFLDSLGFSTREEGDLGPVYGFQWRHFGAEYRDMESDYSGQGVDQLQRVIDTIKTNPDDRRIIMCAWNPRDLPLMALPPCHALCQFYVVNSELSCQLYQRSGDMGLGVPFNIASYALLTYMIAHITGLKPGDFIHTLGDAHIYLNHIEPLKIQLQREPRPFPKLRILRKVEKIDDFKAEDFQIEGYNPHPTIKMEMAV

Molecule: C[C@]12CCC(=O)C=C1CCC1[C@@H]2[C@@H](O)C[C@@]2(C)[C@H]1CC[C@]2(O)C(=O)CO (single isomer, unassigned) [HYDROCORTISONE]
inhibition in vivo at 0.3 mg/kg (Rattus norvegicus [1]): 36%
Net Swelling (Rattus norvegicus [2]): 0.09

Ki (Dihydrofolate reductase): 0.69 nM
Ki [3]: 9200 nM
Ki (Thymidylate synthase [4]): > 5000 nM
Vmax / Km [5]: 98
Molecule: C[C@](CCC(=O)O)(NC(=O)c1ccc(CCC2CNc3nc(N)nc(N)c3C2)s1)C(=O)O (some centres not stated)

Molecule: C[C@](CCC(=O)O)(NC(=O)c1ccc(CCC2CNc3nc(N)nc(N)c3C2)cc1)C(=O)O (some centres not stated)
Ki (Dihydrofolate reductase): 0.29 nM
Ki [3]: 56000 nM
inhibition in vivo at 0.06 mg/kg (Rattus norvegicus [6]): 0%
inhibition in vivo at 0.06 mg/kg (Rattus norvegicus [7]): 0%
inhibition in vivo at 0.125 mg/kg (Rattus norvegicus [8]): 35%
inhibition in vivo at 0.125 mg/kg (Rattus norvegicus [9]): 14%
Net Swelling (Rattus norvegicus [10]): 0.82
Net Swelling (Rattus norvegicus [11]): 0.15
Net Swelling (Rattus norvegicus [12]): 0.55
Net Swelling (Rattus norvegicus [13]): 0.12
Ki (Thymidylate synthase [14]): > 5000 nM
Vmax / Km [5]: 40

Molecule: C[C@](CCC(=O)O)(NC(=O)c1ccc(CCC2CNc3nc(N)nc(N)c3C2)o1)C(=O)O (some centres not stated)
Ki (Dihydrofolate reductase): 9.87 nM
Ki [3]: 710 nM
Ki (Thymidylate synthase [4]): > 5000 nM
Vmax / Km [5]: 9.2

Vmax / Km [5]: 60
Molecule: Nc1nc(O)c2c(n1)NCC(CCc1ccc(C(=O)NC(CCC(=O)O)C(=O)O)cc1)C2 (configuration not stated)

Vmax / Km [5]: 4.3
Molecule: CN(Cc1cnc2nc(N)nc(N)c2n1)c1ccc(C(=O)N[C@@H](CCC(=O)O)C(=O)O)cc1

B1: Folylpolyglutamate synthase, mitochondrial (Homo sapiens), Q05932 (protein)
chain: MSRARSHLRAALFLAAASARGITTQVAARRGLSAWPVPQEPSMEYQDAVRMLNTLQTNAGYLEQVKRQRGDPQTQLEAMELYLARSGLQVEDLDRLNIIHVTGTKGKGSTCAFTECILRSYGLKTGFFSSPHLVQVRERIRINGQPISPELFTKYFWRLYHRLEETKDGSCVSMPPYFRFLTLMAFHVFLQEKVDLAVVEVGIGGAYDCTNIIRKPVVCGVSSLGIDHTSLLGDTVEKIAWQKGGIFKQGVPAFTVLQPEGPLAVLRDRAQQISCPLYLCPMLEALEEGGPPLTLGLEGEHQRSNAALALQLAHCWLQRQDRHGAGEPKASRPGLLWQLPLAPVFQPTSHMRLGLRNTEWPGRTQVLRRGPLTWYLDGAHTASSAQACVRWFRQALQGRERPSGGPEVRVLLFNATGDRDPAALLKLLQPCQFDYAVFCPNLTEVSSTGNADQQNFTVTLDQVLLRCLEHQQHWNHLDEEQASPDLWSAPSPEPGGSASLLLAPHPPHTCSASSLVFSCISHALQWISQGRDPIFQPPSPPKGLLTHPVAHSGASILREAAAIHVLVTGSLHLVGGVLKLLEPALSQ
Vmax [15]: 1190 nM/h/mg
Vmax [16]: 696 nM/h/mg
Vmax [17]: 1140 nM/h/mg
Vmax [18]: 977 nM/h/mg
Km [19]: 28.2 µM
Km [20]: 75.3 µM
Km [21]: 11.6 µM
Km [22]: 16.4 µM
